Laboratory results published in ChEMBL document CHEMBL3588771, “Discovery of 5-Amino-N-(1H-pyrazol-4-yl)pyrazolo[1,5-a]pyrimidine-3-carboxamide Inhibitors of IRAK4” (ACS Med Chem Lett, 2015).

Columns and labels:
in vitro [1] = settings: dog, MDCK
in vitro [2] = settings: pig, LLC-PK1
in vivo [3] = settings: rat, po, 1 mg/kg
in vivo [4] = settings: rat, plasma, iv, 0.5 mg/kg

| Structure (SMILES) | Papp (in vitro [1]) | Papp (in vitro [2]) | bioavailability (in vivo [3]) | clearance (in vivo [4]) |
| --- | --- | --- | --- | --- |
| Cn1cc(NC(=O)c2cnn3ccc(N[C@H]4CCCC[C@H]4N)nc23)c(C(N)=O)n1 | < 2 ×10⁻⁶ cm/s |  |  |  |
| Cn1cc(NC(=O)c2cnn3ccc(N[C@@H]4CCCC[C@@H]4N)nc23)c(C(N)=O)n1 |  | 2 ×10⁻⁶ cm/s | 0% | 56 mL/min/kg |
| Cn1cc(NC(=O)c2cnn3ccc(N[C@@H]4CCCC[C@@H]4N)nc23)c(C#N)n1 | 17 ×10⁻⁶ cm/s |  |  |  |
| Cn1cc(NC(=O)c2cnn3ccc(N[C@@H]4CCCC[C@@H]4N)nc23)c(C(F)(F)F)n1 | 16 ×10⁻⁶ cm/s |  | 5% | 98 mL/min/kg |
| Cn1cc(NC(=O)c2cnn3ccc(N[C@@H]4CCCC[C@@H]4N)nc23)c(C(F)F)n1 | 13 ×10⁻⁶ cm/s |  |  |  |
| Cn1cc(NC(=O)c2cnn3ccc(N[C@@H]4CCCC(F)(F)[C@@H]4N)nc23)c(C(F)F)n1 | 29 ×10⁻⁶ cm/s |  | 46% | 29 mL/min/kg |
| Cn1cc(NC(=O)c2cnn3ccc(N[C@@H]4CCC(F)(F)C[C@@H]4N)nc23)c(C(F)(F)F)n1 | 26 ×10⁻⁶ cm/s |  |  |  |
| Cn1cc(NC(=O)c2cnn3ccc(N4CC[C@H](F)[C@@H](N)C4)nc23)c(C(F)(F)F)n1 | 28 ×10⁻⁶ cm/s |  |  |  |
